The values that follow come from patent publication US12077503B2, “Substituted cyclic amides and their use as herbicides” (FMC CORPORATION, priority 2015, dated 2024).

Where two headings read alike, the source gives them in different places.

What all share (assay): Test A preemergence
What all share (type): in vivo

One experiment deals with Kochia (Kochia scoparia). The conditions noted are these: Bassia scoparia, pre-emergence, 240 h; for pest or weed control at 500 g/ha: 500 g ai/ha; for pest or weed control at 125 g/ha: 125 g ai/ha. An outline of the steps: (§1)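 Ratings of 0 (no effect) to 100 (complete control) come from visual comparison with untreated controls roughly 10 d after treatment. Test chemicals, formulated in a non-phytotoxic solvent mixture with surfactant, were applied either as a preemergence directed soil spray on seeded soil or postemergence to one- to two-leaf plants 2 to 10 cm tall.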

In experiment [1] the test system is barnyardgrass (Echinochloa crus-galli). The conditions noted are these: Echinochloa crus-galli, pre-emergence, 240 h; for pest or weed control at 125 g/ha: 125 g ai/ha; for pest or weed control at 500 g/ha: 500 g ai/ha. An outline of the steps:
as §1

Experiment [2] concerns giant foxtail (Setaria faberii). The conditions noted are these: Setaria faberi, pre-emergence, 240 h; for pest or weed control at 125 g/ha: 125 g ai/ha; for pest or weed control at 500 g/ha: 500 g ai/ha. An outline of the steps:
as §1

For experiment [3], the system named is pigweed (Amaranthus retroflexus). The conditions noted are these: Amaranthus retroflexus, pre-emergence, 240 h; for pest or weed control at 125 g/ha: 125 g ai/ha; for pest or weed control at 500 g/ha: 500 g ai/ha.
Experiment [4] relates to ragweed (common ragweed, Ambrosia elatior). To be noted: Ambrosia artemisiifolia, pre-emergence, 240 h; for pest or weed control at 125 g/ha: 125 g ai/ha; for pest or weed control at 500 g/ha: 500 g ai/ha. An outline of the steps:
as §1

Setting [5] is: Preemergence, visual injury vs untreated controls after approximately 10 d, read-out: Kochia plant response rating (0 to 100 scale where 0 is no effect and 100 is complete control).
The mark [6] stands for this setting: preemergence, 0 to 100 scale where 0 is no effect and 100 is complete control, read-out: Barnyardgrass plant response rating.
Where [7] appears, read: Preemergence, visual injury vs untreated controls after approximately 10 d, read-out: Barnyardgrass plant response rating (0 to 100 scale where 0 is no effect and 100 is complete control).
Setting [8] is: preemergence, 0 to 100 scale where 0 is no effect and 100 is complete control, read-out: Foxtail, Giant plant response rating.
Where [9] appears, read: Preemergence, visual injury vs untreated controls after approximately 10 d, read-out: Foxtail, Giant plant response rating (0 to 100 scale where 0 is no effect and 100 is complete control).
The mark [10] stands for this setting: preemergence, 0 to 100 scale where 0 is no effect and 100 is complete control, read-out: Pigweed plant response rating.
Where [11] appears, read: Preemergence, visual injury vs untreated controls after approximately 10 d, read-out: Pigweed plant response rating (0 to 100 scale where 0 is no effect and 100 is complete control).
The mark [12] stands for this setting: preemergence, 0 to 100 scale where 0 is no effect and 100 is complete control, read-out: Ragweed plant response rating.
Setting [13] is: Preemergence, visual injury vs untreated controls after approximately 10 d, read-out: Ragweed plant response rating (0 to 100 scale where 0 is no effect and 100 is complete control).
Where [14] appears, read: preemergence, 0 to 100 scale where 0 is no effect and 100 is complete control, read-out: Kochia plant response rating.
The mark [15] stands for this setting: preemergence, visual injury rating about 10 d after treatment, 0 to 100 scale (0 no effect, 100 complete control), read-out: Kochia plant response rating.
The mark [16] stands for this setting: preemergence, visual injury rating about 10 d after treatment, 0 to 100 scale (0 no effect, 100 complete control), read-out: Barnyardgrass plant response rating.
[17] abbreviates: preemergence, visual injury rating about 10 d after treatment, 0 to 100 scale (0 no effect, 100 complete control), read-out: Foxtail, Giant plant response rating.
Where [18] appears, read: preemergence, visual injury rating about 10 d after treatment, 0 to 100 scale (0 no effect, 100 complete control), read-out: Pigweed plant response rating.
The mark [19] stands for this setting: preemergence, visual injury rating about 10 d after treatment, 0 to 100 scale (0 no effect, 100 complete control), read-out: Ragweed plant response rating.
Setting [20] is: preemergence, visual injury rating, 0 to 100 scale where 0 is no effect and 100 is complete control, approximately 10 d, read-out: Kochia plant response rating.
Setting [21] is: preemergence, visual injury rating, 0 to 100 scale where 0 is no effect and 100 is complete control, approximately 10 d, read-out: Barnyardgrass plant response rating.
The mark [22] stands for this setting: preemergence, visual injury rating, 0 to 100 scale where 0 is no effect and 100 is complete control, approximately 10 d, read-out: Foxtail, Giant plant response rating.
Where [23] appears, read: preemergence, visual injury rating, 0 to 100 scale where 0 is no effect and 100 is complete control, approximately 10 d, read-out: Pigweed plant response rating.
[24] abbreviates: preemergence, visual injury rating, 0 to 100 scale where 0 is no effect and 100 is complete control, approximately 10 d, read-out: Ragweed plant response rating.

In the case of `CN1C[C@H](c2cc(F)c(C(F)(F)F)c(F)c2)[C@@H](C(=O)Nc2ccccc2F)C1=O` [Compound 899], the pest or weed control at 500 g/ha amounted to 70% in the experiment with Kochia (Kochia scoparia) (setting [5]); 90% in experiment [1] (setting [7]); 90% in experiment [2] (setting [9]); 40% in experiment [3] (setting [11]); 60% in experiment [4] (setting [13]). For the same molecule, the pest or weed control at 125 g/ha in experiment [1] (setting [6]) was found to be 90%; in experiment [2] (setting [8]), 90%; in experiment [3] (setting [10]), 20%; in experiment [4] (setting [12]) it was 20%.

Take `COc1c(F)ccc([C@H]2CNC(=O)[C@@H]2C(=O)Nc2ccccc2S(C)(=O)=O)c1Cl` [Compound 916]: the pest or weed control at 125 g/ha was found to be 40% with Kochia (Kochia scoparia) (setting [14]); 30% in experiment [1] (setting [6]); 70% in experiment [2] (setting [8]); 0% in experiment [3] (setting [10]); 0% in experiment [4] (setting [12]). The pest or weed control at 500 g/ha with Kochia (Kochia scoparia) (setting [5]) was 60%; in experiment [1] (setting [7]) it was 80%; in experiment [2] (setting [9]), 80%; in experiment [3] (setting [11]), 20%; in experiment [4] (setting [13]), 70%.

For `CN1CC[C@H](c2cccc(Cl)c2)[C@@H](C(=O)Nc2ccccc2F)C1=O` [Compound 922], the pest or weed control at 125 g/ha in the experiment on Kochia (Kochia scoparia) (setting [14]) was found to be 0%; in experiment [1] (setting [6]), 60%; in experiment [2] (setting [8]), 90%; in experiment [3] (setting [10]) it was 0%; in experiment [4] (setting [12]) it was 0%. For the same molecule, the pest or weed control at 500 g/ha came out at 0% in the experiment with Kochia (Kochia scoparia) (setting [5]); 80% in experiment [1] (setting [7]); 90% in experiment [2] (setting [9]); 0% in experiment [3] (setting [11]); 0% in experiment [4] (setting [13]).

For the molecule `CN1CC[C@H](c2cccc(Cl)c2)[C@@H](C(=O)Nc2ccccc2S(C)(=O)=O)C1=O` [Compound 923], the pest or weed control at 125 g/ha (in the experiment with Kochia (Kochia scoparia) (setting [14]); in experiment [1] (setting [6]); in experiment [2] (setting [8]); in experiment [3] (setting [10]); in experiment [4] (setting [12])) was 0% each time. The pest or weed control at 500 g/ha amounted to 0% with Kochia (Kochia scoparia) (setting [5]); 70% in experiment [1] (setting [7]); 70% in experiment [2] (setting [9]); 0% in experiment [3] (setting [11]); 0% in experiment [4] (setting [13]).

For the molecule `O=C(Nc1cccc(Cl)c1F)[C@H]1C(=O)N(C2CC2)CC[C@@H]1c1cccc(C(F)(F)F)c1` [Compound 926], the pest or weed control at 125 g/ha with Kochia (Kochia scoparia) (setting [14]) came to 0%; in experiment [1] (setting [6]) it was 30%; in experiment [2] (setting [8]) it was 80%; in experiment [3] (setting [10]) it was 0%; in experiment [4] (setting [12]) it was 0%. Besides, the pest or weed control at 500 g/ha in the experiment on Kochia (Kochia scoparia) (setting [15]) was determined as 0%; in experiment [1] (setting [16]), 90%; in experiment [2] (setting [17]), 90%; in experiment [3] (setting [18]) it was 0%; in experiment [4] (setting [19]), 0%.

`CS(=O)(=O)c1ccccc1NC(=O)[C@H]1C(=O)N(C2CC2)CC[C@@H]1c1cccc(C(F)(F)F)c1` [Compound 927]: the pest or weed control at 125 g/ha (with Kochia (Kochia scoparia) (setting [14]); in experiment [1] (setting [6]); in experiment [2] (setting [8]); in experiment [3] (setting [10]); in experiment [4] (setting [12])) was 0% in each case. Further, the pest or weed control at 500 g/ha in the experiment on Kochia (Kochia scoparia) (setting [15]) was determined as 0%; in experiment [1] (setting [16]) it was 70%; in experiment [2] (setting [17]) it was 70%; in experiment [3] (setting [18]), 0%; in experiment [4] (setting [19]) it was 0%.

For `CN1C[C@H](c2cc(F)cc(C(F)(F)F)c2)[C@@H](C(=O)Nc2cccc(Cl)c2F)C1=O` [Compound 995], the pest or weed control at 500 g/ha is 0% in the experiment on Kochia (Kochia scoparia) (setting [15]); 90% in experiment [1] (setting [16]); 90% in experiment [2] (setting [17]); 30% in experiment [3] (setting [18]); 20% in experiment [4] (setting [19]). The pest or weed control at 125 g/ha in experiment [1] (Preemergence, visual injury rating after approximately 10 d, read-out: Barnyardgrass plant response rating (0 to 100 scale, 0 is no effect, 100 is complete control)) is 80%; in experiment [2] (Preemergence, visual injury rating after approximately 10 d, read-out: Foxtail, Giant plant response rating (0 to 100 scale, 0 is no effect, 100 is complete control)) it was 90%; in experiment [3] (Preemergence, visual injury rating after approximately 10 d, read-out: Pigweed plant response rating (0 to 100 scale, 0 is no effect, 100 is complete control)), 20%; in experiment [4] (Preemergence, visual injury rating after approximately 10 d, read-out: Ragweed plant response rating (0 to 100 scale, 0 is no effect, 100 is complete control)) it was 0%.

On to `Cc1cc([C@H]2CN(C)C(=O)[C@@H]2C(=O)Nc2ccccc2F)no1` [Compound 1194], for which the pest or weed control at 125 g/ha (in the experiment with Kochia (Kochia scoparia) (setting [20]); in experiment [1] (setting [21]); in experiment [2] (setting [22]); in experiment [3] (setting [23]); in experiment [4] (setting [24])) was 0% each time. The pest or weed control at 500 g/ha in the experiment with Kochia (Kochia scoparia) (setting [14]) came to 0%; in experiment [1] (setting [6]) it was 30%; in experiment [2] (setting [8]), 20%; in experiment [3] (setting [10]), 0%; in experiment [4] (setting [12]), 0%.

`N#Cc1cc([C@H]2CNC(=O)[C@@H]2C(=O)Nc2ccccc2F)ccc1F` [Compound 1199]: the pest or weed control at 125 g/ha stood at 0% in the experiment on Kochia (Kochia scoparia) (setting [20]); 90% in experiment [1] (setting [21]); 90% in experiment [2] (setting [22]); 0% in experiment [3] (setting [23]); 30% in experiment [4] (setting [24]). Further, the pest or weed control at 500 g/ha in the experiment with Kochia (Kochia scoparia) (setting [14]) is 0%; in experiment [1] (setting [6]) it was 100%; in experiment [2] (setting [8]), 100%; in experiment [3] (setting [10]) it was 60%; in experiment [4] (setting [12]), 90%.
